Test results: patent publication US12281102B2, “Inhibitors of APOL1 and methods of using same” (Vertex Pharmaceuticals Incorporated, priority 2020, dated 2025)
Like-named read-outs stand apart in the source and are kept apart here.

Biological target: T1, G1 APOL1 (Homo sapiens, UniProt O14791, I384M/S342G)
T1 construct: expressed in transfected cells
T1 sequence (O14791 28-398 S342G/I384M): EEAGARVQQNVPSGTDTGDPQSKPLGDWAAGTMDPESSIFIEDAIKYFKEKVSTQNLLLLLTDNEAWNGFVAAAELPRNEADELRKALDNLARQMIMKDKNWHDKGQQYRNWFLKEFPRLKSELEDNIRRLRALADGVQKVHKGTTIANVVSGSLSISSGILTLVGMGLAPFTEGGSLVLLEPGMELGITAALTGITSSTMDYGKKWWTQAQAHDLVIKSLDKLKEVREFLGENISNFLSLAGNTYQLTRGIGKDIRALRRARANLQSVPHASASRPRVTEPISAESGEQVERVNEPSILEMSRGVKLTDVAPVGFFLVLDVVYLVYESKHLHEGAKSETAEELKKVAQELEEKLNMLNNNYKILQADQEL
Test: Acute APOL1 Thallium Assay with inducible stable clones of HEK 293 cells
Assay type: cell-based
Conditions: HEK 293 T-Rex inducible stable clone expressing G1 APOL1
Procedure, shortened: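 APOL1 pore function was measured as thallium influx, detected by a Tl+-sensitive fluorescent dye loaded as AM ester, on a FLIPR Tetra after Tl+ addition. Cells were HEK T-Rex G1 APOL1 clone DC3.25, 26,000 per well, induced with tetracycline at plating in Opti-MEM assay medium.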

[1] = read-out: Thallium Assay (IC50)

IC50 [1] [nM]	Structure (SMILES)	IC50 (Thallium Assay (IC50)) [nM]
> 1000	O=S(=O)(NC[C@@H](O)CO)NC[C@H]1C[C@H](c2c(-c3ccc(F)cc3)[nH]c3c(F)cc(F)cc32)C1 [Compound 352]	–
250 to 1000	O=S(=O)(NC[C@H]1C[C@H](c2c(-c3ccc(F)cc3)[nH]c3c(F)cc(F)cc32)C1)NC1(CO)CCC1 [Compound 355]	–
> 1000	OCC1(NCC2CC(c3c(-c4ccc(F)cc4)[nH]c4c(F)cc(F)cc34)C2)COC1 (centres unmarked) [Compound 390]	–
250 to 1000	CS(=O)(=O)NC[C@H]1C[C@H](c2c(-c3ccc(F)cc3)[nH]c3c(F)cc(F)cc32)C1 [Compound 412, N-(((1r,3r)-3-(5,7-difluoro-2-(4-fluorophenyl)-1H-indol-3-yl)cyclobutyl)methyl)methanesulfonamide]	–
> 1000	O=C1NCC[C@@H]1NCC1CC(c2c(-c3ccc(F)cc3)[nH]c3c(F)cc(F)cc23)C1 (some centres unmarked) [Compound 400]	–
> 1000	O=C(CC(=O)N1CCOCC1)NC[C@H]1C[C@@H](c2c(-c3ccc(F)cc3)[nH]c3c(F)cc(F)cc32)C1 [Compound 300]	–
> 1000	NC(=O)CNC(=O)C1CC(Cc2c(-c3ccc(F)cc3)[nH]c3c(F)cc(F)cc23)C1 (centres unmarked) [Compound 449, N-(2-amino-2-oxoethyl)-3-((5,7-difluoro-2-(4-fluorophenyl)-1H-indol-3-yl)methyl)cyclobutane-1-carboxamide]	–
> 1000	O=C(NC[C@H]1C[C@@H](c2c(-c3ccc(F)cc3)[nH]c3c(F)cc(F)cc32)C1)c1cnn[nH]1 [Compound 309]	–
> 1000	O=C(NC[C@H]1C[C@H](c2c(-c3ccc(F)cc3)[nH]c3c(F)cc(F)cc32)C1)c1ccc[nH]c1=O [Compound 330]	–
> 1000	O=C(CC1CC(F)(F)C1)NC[C@H]1C[C@@H](c2c(-c3ccc(F)cc3)[nH]c3c(F)cc(F)cc32)C1 [Compound 313]	–
250 to 1000	CC(CCO)NS(=O)(=O)NC[C@H]1C[C@H](c2c(-c3ccc(F)cc3)[nH]c3c(F)cc(F)cc32)C1 (mixture of isomers) [Compound 362]	–
250 to 1000	CN1CCC(NCC2CC(c3c(-c4ccc(F)cc4)[nH]c4c(F)cc(F)cc34)C2)C1=O (centres unmarked) [Compound 381]	–
250 to 1000	O=S(=O)(NC[C@H]1C[C@H](c2c(-c3ccc(F)cc3)[nH]c3c(F)cc(F)cc32)C1)c1c[nH]cn1 [Compound 415]	–
> 1000	O=C(CCN1CCCC1=O)NC[C@H]1C[C@@H](c2c(-c3ccc(F)cc3)[nH]c3c(F)cc(F)cc32)C1 [Compound 326]	–
> 1000	NS(=O)(=O)CCCC(=O)NC[C@H]1C[C@@H](c2c(-c3ccc(F)cc3)[nH]c3c(F)cc(F)cc32)C1 [Compound 280]	–
250 to 1000	CNCC(=O)N1CC(Cc2c(-c3ccc(F)cc3)[nH]c3c(F)cc(F)cc23)C1 [Compound 440]	–

IC50 [1] [nM]	Structure (SMILES)	IC50 (Thallium Assay (IC50)) [nM]
> 1000	O=C(NC[C@H]1C[C@H](c2c(-c3ccc(F)cc3)[nH]c3c(F)cc(F)cc32)C1)[C@@H]1C[C@H](F)CN1 [Compound 246]	–
> 1000	CN1CCC(CC(=O)NC[C@H]2C[C@@H](c3c(-c4ccc(F)cc4)[nH]c4c(F)cc(F)cc43)C2)CC1 [Compound 239]	–
> 1000	CC(CO)(CO)NS(=O)(=O)NC[C@H]1C[C@H](c2c(-c3ccc(F)cc3)[nH]c3c(F)cc(F)cc32)C1 [Compound 365]	–
250 to 1000	CC(C)(C)OC(=O)NCC(=O)NC[C@H]1C[C@H](c2c(-c3ccc(F)cc3)[nH]c3c(F)cc(F)cc32)C1 [Compound 215]	–
> 1000	CC1(C(=O)NC[C@H]2C[C@@H](c3c(-c4ccc(F)cc4)[nH]c4c(F)cc(F)cc43)C2)CC(=O)C1 [Compound 284]	–
> 1000	OCCCNCC1CC(c2c(-c3ccc(F)cc3)[nH]c3c(F)cc(F)cc23)C1 (centres unmarked) [Compound 393]	–
> 1000	O=C(Cn1cnnc1)NC[C@H]1C[C@@H](c2c(-c3ccc(F)cc3)[nH]c3c(F)cc(F)cc32)C1 [Compound 307]	–
> 1000	C[C@H](O)[C@H](CO)NCC1CC(c2c(-c3ccc(F)cc3)[nH]c3c(F)cc(F)cc23)C1 (some centres unmarked) [Compound 392]	–
> 1000	O=C(NC[C@H]1C[C@H](c2c(-c3ccc(F)cc3)[nH]c3c(F)cc(F)cc32)C1)c1ccncn1 [Compound 288]	–
> 1000	O=C1CCCN1CCCNS(=O)(=O)NC[C@H]1C[C@H](c2c(-c3ccc(F)cc3)[nH]c3c(F)cc(F)cc32)C1 [Compound 335]	–
> 1000	O=C1CC[C@@H](C(=O)NC[C@H]2C[C@H](c3c(-c4ccc(F)cc4)[nH]c4c(F)cc(F)cc43)C2)N1 [Compound 235]	–
250 to 1000	NCC1(F)CC(c2c(-c3ccc(F)cc3)[nH]c3c(F)cc(F)cc23)C1 (centres unmarked) [Compound 428, [3-[5,7-difluoro-2-(4-fluorophenyl)-1H-indol-3-yl]-1-fluoro-cyclobutyl]methanamine]	–
250 to 1000	CC(C)(C)OC(=O)NCC(=O)NC[C@H]1C[C@@H](c2c(-c3ccc(F)cc3)[nH]c3c(F)cc(F)cc32)C1 [Compound 212]	–
< 250	OC[C@H]1C[C@H](c2c(-c3ccc(F)cc3)[nH]c3c(F)cc(F)cc32)C1 [Compound 425, [3-[5,7-difluoro-2-(4-fluorophenyl)-1H-indol-3-yl]cyclobutyl]methanol]	–
> 1000	O=S(=O)(NC[C@H]1C[C@H](c2c(-c3ccc(F)cc3)[nH]c3c(F)cc(F)cc32)C1)N[C@@H](CO)C(F)F [Compound 347]	–
> 1000	O=C1C[C@H](C(=O)NC[C@H]2C[C@H](c3c(-c4ccc(F)cc4)[nH]c4c(F)cc(F)cc43)C2)N1 [Compound 237]	–

The next lines start with the compound.

Structure (SMILES)	IC50 [1] [nM]	IC50 (Thallium Assay (IC50)) [nM]
NCC(=O)NC[C@H]1C[C@@H](c2c(-c3ccc(F)cc3)[nH]c3c(F)cc(F)cc32)C1 [Compound 190]	< 250	–
CC(C(=O)N[C@H]1C[C@@H](c2c(-c3ccc(F)cc3)[nH]c3c(F)cc(F)cc32)C1)N(C)C (mixture of isomers) [Compound 77]	> 1000	–
NC1CC(c2c(-c3ccc(F)cc3)[nH]c3c(F)cc(F)cc23)C1 (centres unmarked) [Compound 14, 3-[5,7-difluoro-2-(4-fluorophenyl)-1H-indol-3-yl]cyclobutanamine]	–	< 250
CC1(C(=O)N[C@H]2C[C@H](c3c(-c4ccc(F)cc4)[nH]c4c(F)cc(F)cc43)C2)CC(=O)C1 [Compound 94]	250 to 1000	–
CN1CCC(CC(=O)N[C@H]2C[C@@H](c3c(-c4ccc(F)cc4)[nH]c4c(F)cc(F)cc43)C2)C1 (some centres unmarked) [Compound 45]	> 1000	–
CS(=O)(=O)CCC(=O)N[C@H]1C[C@H](c2c(-c3ccc(F)cc3)[nH]c3c(F)cc(F)cc32)C1 [Compound 119]	> 1000	–
O=C(CC(=O)N1CCOCC1)N[C@H]1C[C@H](c2c(-c3ccc(F)cc3)[nH]c3c(F)cc(F)cc32)C1 [Compound 120]	> 1000	–
Cc1nccn1CC(=O)N[C@H]1C[C@@H](c2c(-c3ccc(F)cc3)[nH]c3c(F)cc(F)cc32)C1 [Compound 63]	> 1000	–
CN(C)CCC(=O)N[C@H]1C[C@@H](c2c(-c3ccc(F)cc3)[nH]c3c(F)cc(F)cc32)C1 [Compound 59]	> 1000	–
COCCC(=O)N[C@H]1C[C@H](c2c(-c3ccc(F)cc3)[nH]c3c(F)cc(F)cc32)C1 [Compound 125]	< 250	–
O=S(=O)(N[C@H]1C[C@@H](c2c(-c3ccc(F)cc3)[nH]c3c(F)cc(F)cc32)C1)c1cn[nH]c1 [Compound 84]	> 1000	–
CCS(=O)(=O)N[C@H]1C[C@H](c2c(-c3ccc(F)cc3)[nH]c3c(F)cc(F)cc32)C1 [Compound 147]	< 250	–
CC(F)(F)C(=O)N[C@H]1C[C@H](c2c(-c3ccc(F)cc3)[nH]c3c(F)cc(F)cc32)C1 [Compound 130]	250 to 1000	–
O=C(CC1COC1)N[C@H]1C[C@H](c2c(-c3ccc(F)cc3)[nH]c3c(F)cc(F)cc32)C1 [Compound 138]	> 1000	–
O=C(N[C@H]1C[C@H](c2c(-c3ccc(F)cc3)[nH]c3c(F)cc(F)cc32)C1)C1(O)CC1 [Compound 135]	< 250	–
CC1(C(=O)NC2CC(Cc3c(-c4ccc(F)cc4)[nH]c4c(F)cc(F)cc34)C2)CCNC1=O (mixture of isomers) [Compound 169]	> 1000	–
CC(C(=O)N[C@H]1C[C@H](c2c(-c3ccc(F)cc3)[nH]c3c(F)cc(F)cc32)C1)N(C)C (mixture of isomers) [Compound 111]	> 1000	–
CN(C)CC(=O)N[C@H]1C[C@H](c2c(-c3ccc(F)cc3)[nH]c3c(F)cc(F)cc32)C1 [Compound 91]	> 1000	–
O=C(CC1NC(=O)NC1=O)NC1CC(Cc2c(-c3ccc(F)cc3)[nH]c3c(F)cc(F)cc23)C1 (centres unmarked) [Compound 168]	> 1000	–
O=S(=O)(N[C@H]1C[C@H](c2c(-c3ccc(F)cc3)[nH]c3c(F)cc(F)cc32)C1)c1cn[nH]c1 [Compound 145, N-[(1r,3r)-3-[5,7-difluoro-2-(4-fluorophenyl)-1H-indol-3-yl]cyclobutyl]-1H-pyrazole-4-sulfonamide]	250 to 1000	–
CCS(=O)(=O)N[C@H]1C[C@@H](c2c(-c3ccc(F)cc3)[nH]c3c(F)cc(F)cc32)C1 [Compound 82]	> 1000	–
CC(C)(O)C(=O)NC1CC(c2c(-c3ccc(F)cc3)[nH]c3c(F)cc(C(F)(F)F)cc23)C1 (mixture of isomers) [Compound 3, N-[3-[7-fluoro-2-(4-fluorophenyl)-5-(trifluoromethyl)-1H-indol-3-yl]cyclobutyl]-2-hydroxy-2-methyl-propanamide]	250 to 1000	–
O=C(CCN1CCCC1=O)N[C@H]1C[C@H](c2c(-c3ccc(F)cc3)[nH]c3c(F)cc(F)cc32)C1 [Compound 114]	> 1000	–
O=C(CC1CS(=O)(=O)C1)N[C@H]1C[C@H](c2c(-c3ccc(F)cc3)[nH]c3c(F)cc(F)cc32)C1 [Compound 101]	> 1000	–
